Entries after “also recorded” stand apart in the source; their conditions may differ.
What was measured:
[1] = Sialic acids in skin and intestinal mucus and plasma of salmon fed 1% Neu5Ac (bioavailability); format: in vivo, Atlantic salmon (Salmo salar)
Description: (§1) The example describes additional results obtained from feeding salmon a diet containing 1% Neu5Ac w/w. A feeding and morbidity experiment with Atlantic salmon (Salmo salar) was carried out at the Industrial Laboratory in Bergen (ILAB). The purpose of the trial was to investigate the effect of adding 1% Neu5Ac to feed on growth, certain fish health indicators, and the fish's resistance and welfare when infected with salmon lice and ILA virus, respectively. The trial included six main phases, the last two of which ran parallel with different infectious agents (FIG. 4).
Day 1-8: Acclimatization. Presmolt (approx. 40 g starting weight), freshwater phase. • Bulk weighing of all fish on day 1. • NB: All the fish received exclusively control feed during the acclimatization phase. • Day 8: First sampling. Day 9-41: Growth and preparation for smoltification, freshwater phase. • Different diets started (and continued) from day 9 onwards. • Light regime changed from 12:12 light/dark to 24 hours light on day 15. • Bulk weighing of fish on day 25. • Temperature increased from 12 to 14 degrees on day 28. • Smoltification starts in response to changed light regime and changed temperature. • Day 36: Second sampling. • Bulk weighing of fish on day 37. Day 42-50: Smoltification, transition and acclimatization to saltwater phase. • From 20 salt water from day 42, full salinity and presumed complete smoltification by day 44. • Day 50: Third sampling. • Day 51-78: Postsmolt, growth in seawater phase. • Growth on different diets, no other manipulations. • Day 78: Fourth sampling. […]
To separate life history effects from a general assessment of bioavailability, the samples from the longest continuous growth phase are first analyzed without experimental manipulations. […]

[2] = Growth and condition (weight, length, fitness factor) on 1% Neu5Ac feed; format: in vivo, Atlantic salmon (Salmo salar); conditions: postsmolt, Day 78
Description: as §1
Day 1-8: Acclimatization. Presmolt (approx. 40 g starting weight), freshwater phase. • Bulk weighing of all fish on day 1. • NB: All the fish received exclusively control feed during the acclimatization phase. • Day 8: First sampling. Day 9-41: Growth and preparation for smoltification, freshwater phase. • Different diets started (and continued) from day 9 onwards. • Light regime changed from 12:12 light/dark to 24 hours light on day 15. • Bulk weighing of fish on day 25. • Temperature increased from 12 to 14 degrees on day 28. • Smoltification starts in response to changed light regime and changed temperature. • Day 36: Second sampling. • Bulk weighing of fish on day 37. Day 42-50: Smoltification, transition and acclimatization to saltwater phase. • From 20 salt water from day 42, full salinity and presumed complete smoltification by day 44. • Day 50: Third sampling. • Day 51-78: Postsmolt, growth in seawater phase. • Growth on different diets, no other manipulations. • Day 78: Fourth sampling. Day 79-94: Infection test—salmon lice • A proportion of the fish were taken out of all test vessels on day 79; anesthetized, marked, collected in a common large vessel and infected with salmon lice. • Bulk weighing of the fish taken out for the lice test. • The experimental fish were then distributed according to original diet group, in two new vessels, for further observation. • Day 94: […], lice test completed. […]

[3] = Example 2 mucosal health of gills and skin after sea lice challenge; format: in vivo, Atlantic salmon; conditions: fifteen days following challenge with salmon lice; 2 of 3 tanks
Description: An experiment was conducted to determine the mucosal health status of gills, dorsal skin and foregut of Atlantic salmon smolt and postsmolt given sialic acid (NANA) treatment at a single dose (1% in feed) or a control treatment and challenged by sea lice exposure.
Atlantic salmon were reared in the flow-through system of the ILAB facility at 12 C and were reared in freshwater through smoltification to seawater in six tanks, 3 tanks per treatment. The gills and dorsal skin of the fish (n=30 per date, 5 from each replicate tank) were individually sampled on each of the following dates. The foregut of 30 fish was sampled once, while skin samples were not collected on the same date. The samples were processed (buffered formalin fixation, paraffin embedding, sectioned and stained with PAS-AB), digitally scanned and analyzed for mucous cell density (% epithelium filled with mucous cells, A), defense (mucous) cell sizes (mucous cell area, μm^2, D) and defense activity (barrier status, =(1/(A:D))×1000).
The fish were transferred to two large holding tanks and challenged with salmon lice and sampled 15 days later.

Free Neu5Ac in the intestinal mucosa vs control diet ([1]; postsmolt, Day 78): highly significant
Total Neu5Ac in the intestinal mucosa vs control diet (elevated level) ([1]; postsmolt, Day 78): weakly significant
SMILES: CC(=O)N[C@H]1[C@H]([C@H](O)[C@H](O)CO)OC(O)(C(=O)O)C[C@@H]1O (stereo partly shown) [Neu5Ac, N-acetyl neuraminic acid]
Bioavailability of free Neu5Ac in feed ([1]; 1% Neu5Ac in feed, salmon, listed as Free Neu5Ac): bioavailable; also recorded: biologically available
% Increase in fitness (condition) factor vs control [2]: 19%
% Increase in length vs control [2]: 5%
% Increase in weight vs control [2]: 22%
Gill mucous cell size after challenge [3]: not significantly reduced

Source: patent US20250057862A1, “SIALIC ACID COMPOSITIONS FOR USE IN INHIBITING AND TREATING INFECTIONS IN FISH” (LifeScience AS, priority 2021, published 2025)
